Source: patent US20080221086A1, “Novel Inhibitors of Glutaminyl Cyclase” (PROBIODRUG AG, priority 2006, published 2008)
Where two headings read alike, the source gives them in different places.

Molecular target: hQC (Homo sapiens, UniProt Q16769)
Test: Fluorometric assay of glutaminyl cyclase (QC) inhibition, H-Gln-βNA or H-Gln-AMC substrate
Assay type: biochemical
Procedure, shortened: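 Ki values were obtained by fitting progress curves to a competitive-inhibition equation, and the rapid screen used 4 mM inhibitor with substrate at 1 KM. Both readouts coupled pyroglutamyl aminopeptidase at pH 8.0 and 30° C: H-Gln-βNA at 0.2 mM (ex/em 320/410 nm) or H-Gln-AMC (380/460 nm).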

Chain of hQC (Q16769 29-361): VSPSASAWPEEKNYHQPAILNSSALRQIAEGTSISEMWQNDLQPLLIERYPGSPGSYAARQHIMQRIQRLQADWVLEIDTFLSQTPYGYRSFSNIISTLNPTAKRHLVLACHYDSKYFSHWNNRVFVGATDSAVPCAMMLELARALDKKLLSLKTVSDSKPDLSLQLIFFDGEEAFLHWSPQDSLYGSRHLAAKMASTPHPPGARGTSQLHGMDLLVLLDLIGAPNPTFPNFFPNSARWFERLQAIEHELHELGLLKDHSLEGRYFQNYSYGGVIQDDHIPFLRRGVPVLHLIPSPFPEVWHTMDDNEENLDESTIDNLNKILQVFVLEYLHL

IC50 (read-out: IC50) [µM] | IC50 (compound from preparative synthesis, purified by chromatography, fluorescent assay, read-out: IC50 hQC) [µM] | Compound
9.4 | – | Cc1cccc(C2/C(=N/CCCN(C)C)NC(=O)N2c2ccc3[nH]cnc3c2)c1 (centres unmarked) [Compound 253, 4-(3-(Dimethylamino)propylimino)-1-(1H-benzo[d]imidazol-5-yl)-5-m-tolylimidazolidin-2-one]
0.004 | 0.997 | CC1=CC(C)C(C2/C(=N/C(C)C)NC(=O)N2c2ccc3[nH]cnc3c2)CC1 (centres unmarked) [Compound 254, 1-(1H-Benzoimidazol-5-yl)-5-(2,4-dimethyl-cyclohex-3-enyl)-4-(isopropylimino)-imidazolidin-2-one]
6.7 | – | O=C1CCCN1CCC/N=C1/NC(=S)N(c2ccc3[nH]cnc3c2)C1c1ccc2c(c1)OCO2 (centres unmarked) [Compound 255, 1-(3-(5-(benzo[d][1,3]dioxol-5-yl)-1-(1H-benzo[d]imidazol-5-yl)-2-thioxoimidazolidin-4-ylideneamino)propyl)pyrrolidin-2-one]
9.4 | – | S=C1N/C(=N\C2CCCC2)C(c2ccc3ccccc3c2)N1c1ccc2[nH]cnc2c1 (centres unmarked) [Compound 256, 1-(1H-Benzoimidazol-5-yl)-4-cyclopentylimino-5-naphthalen-2-yl-imidazolidine-2-thione]
0.4 | – | Cc1nc[nH]c1C1/C(=N/C2CCc3ccccc32)NC(=O)N1c1ccc2nc[nH]c2c1 (centres unmarked) [Compound 257, 3-(3H-Benzoimidazol-5-yl)-5-indan-1-ylimino-5′-methyl-1,3,4,5-tetrahydro-3′H-4,4′biimidazolyl-2-one]
3.1 | – | S=C1N/C(=N/CCCc2ccccc2)C(c2cc3ccccc3s2)N1c1ccc2[nH]cnc2c1 (centres unmarked) [Compound 258, 5-Benzobthiophen-2-yl-1-(1H-benzoimidazol-5-yl)-4-3-phenyl-propylimino-imidazolidine-2-thione]
2.2 | – | CC1=CC(C)C(C2/C(=N/c3ccc4c(c3)OCCO4)NC(=O)N2c2ccc3[nH]cnc3c2)CC1 (centres unmarked) [Compound 259, 1-(1H-Benzoimidazol-5-yl)-4-2,3-dihydro-benzo1,4dioxin-6-ylimino-5-(2,4-dimethyl-cyclohex-3-enyl)-imidazolidin-2-one]
3.1 | – | S=C1N/C(=N/CCc2cccs2)C(c2cc3ccccc3s2)N1c1ccc2[nH]cnc2c1 (centres unmarked) [Compound 260, 5-Benzobthiophen-2-yl-1-(1H-benzoimidazol-5-yl)-4-2-thiophen-2-yl-ethylimino-imidazolidine-2-thione]
6.7 | – | S=C1N/C(=N/Cc2ccccc2)C(c2cccc(Br)c2)N1c1ccc2[nH]cnc2c1 (centres unmarked) [Compound 261, 1-(1H-Benzoimidazol-5-yl)-4-benzylimino-5-(3-bromo-phenyl)-imidazolidine-2-thione]
1.3 | – | Cc1ccc(C2/C(=N/C(C)(C)CC(C)(C)C)NC(=O)N2c2ccc3nc[nH]c3c2)c(C)c1 (centres unmarked) [Compound 262, 1-(3H-Benzoimidazol-5-yl)-5-(2,4-dimethyl-phenyl)-4-1,1,3,3-tetramethyl-butylimino-imidazolidin-2-one]
1.3 | – | Cc1ccc2occ(C3/C(=N/CCCN4CCOCC4)NC(=O)N3c3ccc4[nH]cnc4c3)c(=O)c2c1 (centres unmarked) [Compound 263, 1-(1H-Benzoimidazol-5-yl)-5-(6-methyl-4-oxo-4H-chromen-3-yl)-4-3-morpholin-4-yl-propylimino-imidazolidin-2-one]
8.5 | – | S=C1N/C(=N\c2ccccc2Br)C(c2ccc3ccccc3c2)N1c1ccc2nc[nH]c2c1 (centres unmarked) [Compound 264, 1-(3H-Benzoimidazol-5-yl)-4-2-bromo-phenylimino-5-naphthalen-2-yl-imidazolidine-2-thione]
8.5 | – | O=C(C/N=C1/NC(=O)N(c2ccc3[nH]cnc3c2)C1C1=CCCCC1)N1CCSCC1 (centres unmarked) [Compound 265, 1-(1H-Benzoimidazol-5-yl)-5-cyclohex-1-enyl-4-2-oxo-2-thiomorpholin-4-yl-ethylimino-imidazolidin-2-one]
8.5 | – | S=C1N/C(=N\C2CCCCC2)C(c2cc3c(cc2Br)OCO3)N1c1ccc2nc[nH]c2c1 (centres unmarked) [Compound 266, 1-(3H-Benzoimidazol-5-yl)-5-(6-bromo-benzo1,3dioxol-5-yl)-4-cyclohexylimino-imidazolidine-2-thione]
4.9 | – | Cc1ccc2occ(C3/C(=N/CCCN4CCCC4=O)NC(=O)N3c3ccc4[nH]cnc4c3)c(=O)c2c1 (centres unmarked) [Compound 267, 1-(1H-Benzoimidazol-5-yl)-5-(6-methyl-4-oxo-4H-chromen-3-yl)-4-3-(2-oxo-pyrrolidin-1-yl)-propylimino-imidazolidin-2-one]
9.4 | – | COC(=O)C(C)/N=C1/NC(=S)N(c2ccc3[nH]cnc3c2)C1c1c(F)ccc(Cl)c1F (centres unmarked) [Compound 268, Methyl 2-(1-(1H-benzo[d]imidazol-5-yl)-5-(3-chloro-2,6-difluorophenyl)-2-thioxoimidazolidin-4-ylideneamino)propanoate]
3.1 | – | C/N=C1/NC(=O)N(c2ccc3[nH]cnc3c2)C1c1ccc(N2CCCC2)cc1 (centres unmarked) [Compound 269, 1-(1H-Benzoimidazol-5-yl)-4-methylimino-5-(4-pyrrolidin-1-yl-phenyl)-imidazolidin-2-one]

IC50 (read-out: IC50) [µM] | IC50 (compound from preparative synthesis, purified by chromatography, fluorescent assay, read-out: IC50 hQC) [µM] | Compound
1.3 | – | O=C(C/N=C1/NC(=S)N(c2ccc3[nH]cnc3c2)C1c1ccnc2ccccc12)N1CCC(O)CC1 (centres unmarked) [Compound 270, 2-(1-(1H-benzo[d]imidazol-5-yl)-5-(quinolin-4-yl)-2-thioxoimidazolidin-4-ylideneamino)-1-(4-hydroxypiperidin-1-yl)ethanone]
0.4 | – | O=C1N/C(=N/Cn2nnc3ccccc32)C(c2ccc3nsnc3c2)N1c1ccc2[nH]cnc2c1 (centres unmarked) [Compound 271, 1-(1H-Benzoimidazol-5-yl)-5-benzo[c][1,2,5]thiadiazol-5-yl-4-benzotriazol-1-ylmethylimino-imidazolidin-2-one]
8.5 | – | S=C1N/C(=N\C2CCCC2)C(c2ccc(Cl)cc2)N1c1ccc2[nH]cnc2c1 (centres unmarked) [Compound 272, 1-(1H-Benzoimidazol-5-yl)-5-(4-chloro-phenyl)-4-cyclopentylimino-imidazolidine-2-thione]
7.6 | – | CC1=CC(C)C(C2/C(=N/C3CCc4ccccc43)NC(=S)N2c2ccc3[nH]cnc3c2)CC1 (centres unmarked) [Compound 273, 1-(1H-Benzoimidazol-5-yl)-5-(2,4-dimethyl-cyclohex-3-enyl)-4-indan-1-ylimino-imidazolidine-2-thione]
4 | – | CC1=CC(C)C(C2/C(=N/CCCN3CCCC3=O)NC(=O)N2c2ccc3[nH]cnc3c2)CC1 (centres unmarked) [Compound 275, 1-(1H-Benzoimidazol-5-yl)-5-(2,4-dimethyl-cyclohex-3-enyl)-4-3-(2-oxo-pyrrolidin-1-yl)-propylimino-imidazolidin-2-one]
7.6 | – | CC1=CC(C)C(C2/C(=N/C(C)C(C)(C)C)NC(=S)N2c2ccc3nc[nH]c3c2)CC1 (centres unmarked) [Compound 276, 1-(1H-Benzoimidazol-5-yl)-5-(2,4-dimethyl-cyclohex-3-enyl)-4-1,2,2-trimethyl-propylimino-imidazolidine-2-thione]
4 | – | Cc1cccc(C2/C(=N\Cn3nnc4ccccc43)NC(=S)N2c2ccc3nc[nH]c3c2)n1 (centres unmarked) [Compound 277, 1-(3H-Benzoimidazol-5-yl)-4-benzotriazol-1-ylmethylimino-5-(6-methyl-pyridin-2-yl)-imidazolidine-2-thione]
6.7 | – | S=C1N/C(=N\C2CCCc3ccccc32)C(c2ccccc2Cl)N1c1ccc2[nH]cnc2c1 (centres unmarked) [Compound 278, 1-(1H-Benzoimidazol-5-yl)-5-(2-chloro-phenyl)-4-1,2,3,4-tetrahydro-napthalen-1-ylimino-imidazolidine-2-thione]
2.2 | – | S=C1NC(=NCn2nnc3ccccc32)C(c2ccnc3ccccc23)N1c1ccc2nc[nH]c2c1 (centres unmarked) [Compound 279, 1-(3H-Benzoimidazol-5-yl)-4-benzotriazol-1-ylmethylimino-5-quinolin-4-yl-imidazolidine-2-thione]
1.3 | – | CN(C)c1ccc(C2/C(=N\Cn3nnc4ccccc43)NC(=S)N2c2ccc3[nH]cnc3c2)cc1 (centres unmarked) [Compound 280, 1-(1H-Benzoimidazol-5-yl)-4-benzotriazol-1-ylmethylimino-5-(4-dimethylamino-phenyl)-imidazolidine-2-thione]
6.7 | – | O=C(CN=C1NC(=O)N(c2ccc3[nH]cnc3c2)C1c1ccc(Cl)c(F)c1)N1CCC(O)C1 (centres unmarked) [Compound 281, 1-(1H-Benzoimidazol-5-yl)-5-(4-chloro-3-fluoro-phenyl)-4-2-(3-hydroxy-pyrrolidin-1-yl)-2-oxo-ethylimino-imidazolidin-2-one]
4.9 | – | O=C(C/N=C1/NC(=O)N(c2ccc3[nH]cnc3c2)C1c1ccc2nsnc2c1)N1CCC(O)C1 (centres unmarked) [Compound 282, 1-(1H-Benzoimidazol-5-yl)-5-benzo[c][1,2,5]thiadiazol-5-yl-4-2-(3-hydroxy-pyrrolidin-1-yl)-2-oxo-ethylimino-imidazolidin-2-one]
0.4 | – | Cc1ccc(C2/C(=N/C3CCCCCC3)NC(=O)N2c2ccc3nc[nH]c3c2)c(C)c1 (centres unmarked) [Compound 283, 1-(3H-Benzoimidazol-5-yl)-4-cycloheptylimino-5-(2,4-dimethyl-phenyl)-imidazolidin-2-one]
1.3 | – | S=C1N/C(=N/CCCc2ccccc2)C(c2ccc3[nH]ccc3c2)N1c1ccc2[nH]cnc2c1 (centres unmarked) [Compound 284, 1-(1H-Benzoimidazol-5-yl)-5-(1H-indol-5-yl)-4-3-phenyl-propylimino-imidazolidine-2-thione]
1.3 | – | Cc1cccc(C2/C(=N\Cn3nnc4ccccc43)NC(=S)N2c2ccc3[nH]cnc3c2)c1 (centres unmarked) [Compound 285, 1-(1H-Benzoimidazol-5-yl)-4-benzotriazol-1-ylmethylimino-5-m-tolyl-imidazolidine-2-thione]
5.8 | – | CC(C)(C)CC(C)(C)/N=C1\CN(c2ccc3nc[nH]c3c2)C(=S)N1 [Compound 286, 1-(3H-Benzoimidazol-5-yl)-4-1,1,3,3-tetramethyl-butylimino-imidazolidine-2-thione]
3.1 | – | CCc1ccccc1/N=C1\NC(=O)N(c2ccc3[nH]cnc3c2)C1c1ccc2c(c1)OCO2 (centres unmarked) [Compound 287, 5-Benzo1,3dioxol-5-yl-1-(1H-benzoimidazol-5-yl)-4-2-ethyl-phenylimino-imidazolidin-2-one]
